From patent US20260327191A1, “GSK3a INHIBITORS AND METHODS OF USE THEREOF” (Blueprint Medicines Corporation, priority 2023, published 2026) come the findings set out here.

Where a name gives a salt, the structure may show the parent alone.

One experiment concerns the target T1, human GSK3α (Homo sapiens, UniProt P49840).
T1 construct: Full length human GSK3α or GSK3B expressed as N-terminal GST fusion proteins; GST (N); purchased Carna Biosciences (Japan); host or cells: baculovirus host
The experiment in a line: In vitro enzymatic activity assay, GSK3α. In kind it is biochemical. The note with it: 1.0 mM ATP, 1.0 μM peptide substrate, 120 min, 25° C, read-out: Enzyme GSK3α (IC50).

The target in another experiment is T2, GSK3A (Homo sapiens, UniProt P49840).
T2 construct: expressed in transfected cells
T2 sequence (P49840 whole entry): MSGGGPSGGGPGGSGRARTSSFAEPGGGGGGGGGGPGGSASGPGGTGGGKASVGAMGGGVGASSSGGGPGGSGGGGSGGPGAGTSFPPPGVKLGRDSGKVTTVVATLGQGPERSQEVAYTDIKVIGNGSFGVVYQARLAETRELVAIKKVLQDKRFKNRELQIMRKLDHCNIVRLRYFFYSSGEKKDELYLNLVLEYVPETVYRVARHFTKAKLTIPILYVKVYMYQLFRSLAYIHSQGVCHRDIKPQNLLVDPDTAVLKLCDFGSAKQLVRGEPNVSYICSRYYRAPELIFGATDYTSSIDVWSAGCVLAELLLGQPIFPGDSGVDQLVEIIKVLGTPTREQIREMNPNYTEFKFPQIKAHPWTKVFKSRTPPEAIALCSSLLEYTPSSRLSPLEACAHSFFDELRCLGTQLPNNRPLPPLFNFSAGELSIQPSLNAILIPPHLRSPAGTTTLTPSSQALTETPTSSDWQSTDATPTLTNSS
Kind of experiment: NanoBRET cellular target engagement assay, Nanoluc-GSK3A in HEK293 cells. The note with it: NanoBRET GSK3α IC50, HEK293 cells, tracer K-8, 2 hours, 37° C. In kind it is cell-based. Background: In BRET a luciferase serves as donor, and the signal depends on an acceptor being close.

For experiment [1], the target named is T3, GSK3B (Homo sapiens, UniProt P49841). Kind of experiment: In vitro enzymatic activity assay, GSK3β. Also on record: Full length human GSK3α or GSK3B expressed as N-terminal GST fusion proteins; GST (N); purchased Carna Biosciences (Japan); host or cells: baculovirus host. The note with it: 1.0 mM ATP, 1.0 μM peptide substrate, 120 min, 25° C, read-out: Enzyme GSK3β (IC50). In kind it is biochemical.
T3 sequence (P49841 whole entry, the tested form may be a part): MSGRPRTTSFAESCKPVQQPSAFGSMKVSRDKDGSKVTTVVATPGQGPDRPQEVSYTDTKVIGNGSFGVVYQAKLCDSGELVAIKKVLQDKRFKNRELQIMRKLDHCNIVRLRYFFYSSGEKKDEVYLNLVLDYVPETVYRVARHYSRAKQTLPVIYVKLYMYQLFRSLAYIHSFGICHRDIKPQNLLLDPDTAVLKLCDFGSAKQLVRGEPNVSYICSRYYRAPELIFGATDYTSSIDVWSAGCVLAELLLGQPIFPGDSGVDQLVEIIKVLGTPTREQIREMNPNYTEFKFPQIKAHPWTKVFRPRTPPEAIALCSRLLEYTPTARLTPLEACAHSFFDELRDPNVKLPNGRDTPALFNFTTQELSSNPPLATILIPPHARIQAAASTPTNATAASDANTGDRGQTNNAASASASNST

Experiment [2] addresses T3, GSK3B. The experiment in a line: NanoBRET cellular target engagement assay, Nanoluc-GSK3B in HEK293 cells. In kind it is cell-based. Set-up: expressed in transfected cells. The note with it: NanoBRET GSK3β IC50, HEK293 cells, tracer K-8, 2 hours, 37° C.

T1 sequence (P49840 whole entry, the tested form may be a part): as the sequence (P49840 whole entry) above

As to `CCNCc1cccc(NC(=O)c2c(N)ncn(-c3c(C)cc(C(F)F)cc3Cl)c2=O)c1` (atropisomer, axis not shown) [Example 11, 4-amino-1-((S)-2-chloro-4-(difluoromethyl)-6-methylphenyl)-N-(3-((ethylamino)methyl)phenyl)-6-oxo-1,6-dihydropyrimidine-5-carboxamide], the IC50 (commonly the point on the concentration scale where inhibition reaches its midpoint) stood at 14.4 nM on human GSK3α, 4.1 nM on GSK3A, 648 nM on GSK3B [1] and 252 nM against GSK3B [2].
The corresponding values for `COCc1cc(C)c(-n2cnc(N)c(C(=O)Nc3cncc([C@H]4CCCCN4)c3)c2=S)c(C)c1` [Example 163, (R)-4-amino-1-(4-(methoxymethyl)-2,6-dimethylphenyl)-N-(5-(piperidin-2-yl)pyridin-3-yl)-6-thioxo-1,6-dihydropyrimidine-5-carboxamide trifluoroacetate] are 5.6 nM, 2.8 nM, 250 nM and 205 nM.
The corresponding values for `CCOc1cc(Cl)c(-n2cnc(N)c(C(=O)Nc3cncc(C(N)C4CC4)c3)c2=O)c(Cl)c1` (single isomer, unassigned) [Example 139, (R)-4-amino-N-(5-(amino(cyclopropyl)methyl)pyridin-3-yl)-1-(2,6-dichloro-4-ethoxyphenyl)-6-oxo-1,6-dihydropyrimidine-5-carboxamide or (S)-4-amino-N-(5-(amino(cyclopropyl)methyl)pyridin-3-yl)-1-(2,6-dichloro-4-ethoxyphenyl)-6-oxo-1,6-dihydropyrimidine-5-carboxamide] are 10.9 nM, 5.1 nM, 560 nM and 281 nM.
The corresponding values for `COCc1cc(Cl)c(-n2cnc(N)c(C(=O)Nc3cncc([C@H](N)CC(F)F)c3)c2=O)c(Cl)c1` (single isomer, unassigned) [Example 70, (R)-4-amino-N-(5-(1-amino-3,3-difluoropropyl)pyridin-3-yl)-1-(2,6-dichloro-4-(methoxymethyl)phenyl)-6-oxo-1,6-dihydropyrimidine-5-carboxamide or (S)-4-amino-N-(5-(1-amino-3,3-difluoropropyl)pyridin-3-yl)-1-(2,6-dichloro-4-(methoxymethyl)phenyl)-6-oxo-1,6-dihydropyrimidine-5-carboxamide] are 2.9 nM, 2.4 nM, 145 nM and 201 nM.
Turning to `CCOc1cc(Cl)c(-n2cnc(N)c(C(=O)Nc3cncc(C4(N)CCC4)c3)c2=O)c(Cl)c1` [Example 183, 4-amino-N-(5-(1-aminocyclobutyl)pyridin-3-yl)-1-(2,6-dichloro-4-ethoxyphenyl)-6-oxo-1,6-dihydropyrimidine-5-carboxamide], the IC50 on human GSK3α was 7.9 nM; against GSK3A, 5 nM; on GSK3B [1] it was 576 nM; on GSK3B [2], 300 nM.
The corresponding values for `Cc1cc(OC(F)(F)F)cc(C)c1-n1cnc(N)c(C(=O)Nc2cncc([C@H]3CCCCN3)c2)c1=O` [Example 110, (R)-4-amino-1-(2,6-dimethyl-4-(trifluoromethoxy)phenyl)-6-oxo-N-(5-(piperidin-2-yl)pyridin-3-yl)-1,6-dihydropyrimidine-5-carboxamide] are 9.9 nM, 3.7 nM, 568 nM and 335 nM.
The corresponding values for `CCOCc1cc(C)c(-n2cnc(N)c(C(=O)Nc3cncc([C@H]4CCCCN4)c3)c2=O)c(C)c1` [Example 131, (R)-4-amino-1-(4-(ethoxymethyl)-2,6-dimethylphenyl)-6-oxo-N-(5-(piperidin-2-yl)pyridin-3-yl)-1,6-dihydropyrimidine-5-carboxamide] are 4.9 nM, 2.3 nM, 202 nM and 159 nM.
The corresponding values for `NCc1cccc(NC(=O)c2c(N)ncn(-c3c(Cl)cccc3Cl)c2=O)c1C(F)(F)F` [Example 171, 4-amino-N-(3-(aminomethyl)-2-(trifluoromethyl)phenyl)-1-(2,6-dichlorophenyl)-6-oxo-1,6-dihydropyrimidine-5-carboxamide] are 44.8 nM, 30.1 nM, 1280 nM and 851 nM.
In the case of `CNC(C)c1cncc(NC(=O)c2c(N)ncn(-c3c(Cl)cc(OC)cc3Cl)c2=O)c1` (single isomer, unassigned) [Example 18, (S)-4-amino-1-(2,6-dichloro-4-methoxyphenyl)-N-(5-(1-(methylamino)ethyl)pyridin-3-yl)-6-oxo-1,6-dihydropyrimidine-5-carboxamide or (R)-4-amino-1-(2,6-dichloro-4-methoxyphenyl)-N-(5-(1-(methylamino)ethyl)pyridin-3-yl)-6-oxo-1,6-dihydropyrimidine-5-carboxamide], the IC50 at human GSK3α amounted to 11.9 nM; against GSK3A, 7.1 nM; at GSK3B [1], 622 nM; against GSK3B [2], 429 nM.
The corresponding values for `COc1cc(Cl)c(-n2cnc(N)c(C(=O)Nc3cncc([C@@H]4CCCN4)c3)c2=O)c(Cl)c1` [Example 73, (S)-4-amino-1-(2,6-dichloro-4-methoxyphenyl)-6-oxo-N-(5-(pyrrolidin-2-yl)pyridin-3-yl)-1,6-dihydropyrimidine-5-carboxamide] are 6.7 nM, 5.8 nM, 318 nM and 374 nM.
The corresponding values for `CCC(N)c1cncc(NC(=O)c2c(N)ncn(-c3c(C)cc(COC)cc3C)c2=O)c1` (single isomer, unassigned) [Example 35, (R)-4-amino-N-(5-(1-aminopropyl)pyridin-3-yl)-1-(4-(methoxymethyl)-2,6-dimethylphenyl)-6-oxo-1,6-dihydropyrimidine-5-carboxamide or (S)-4-amino-N-(5-(1-aminopropyl)pyridin-3-yl)-1-(4-(methoxymethyl)-2,6-dimethylphenyl)-6-oxo-1,6-dihydropyrimidine-5-carboxamide] are 14.7 nM, 6.2 nM, 693 nM and 412 nM.
The corresponding values for `Nc1ncn(-c2c(Cl)cccc2Cl)c(=O)c1C(=O)Nc1cncc([C@@H]2CCCN2)c1` [Example 40, (S)-4-amino-1-(2,6-dichlorophenyl)-6-oxo-N-(5-(pyrrolidin-2-yl)pyridin-3-yl)-1,6-dihydropyrimidine-5-carboxamide] are 10.1 nM, 5.8 nM, 418 nM and 431 nM.
`COc1cc(C)c(-n2cnc(N)c(C(=O)Nc3cncc([C@H]4CCCCN4)c3)c2=O)c(C)c1` [Example 205, (R)-4-amino-1-(4-methoxy-2,6-dimethylphenyl)-6-oxo-N-(5-(piperidin-2-yl)pyridin-3-yl)-1,6-dihydropyrimidine-5-carboxamide]: the IC50 at human GSK3α was determined as 5 nM; at GSK3A, 3.7 nM; on GSK3B [1], 238 nM; at GSK3B [2], 204 nM.
The corresponding values for `Cc1cc(C(F)F)cc(C)c1-n1cnc(N)c(C(=O)Nc2cncc([C@H]3CCCCN3)c2)c1=O` [Example 97, (R)-4-amino-1-(4-(difluoromethyl)-2,6-dimethylphenyl)-6-oxo-N-(5-(piperidin-2-yl)pyridin-3-yl)-1,6-dihydropyrimidine-5-carboxamide] are 3.6 nM, 1.8 nM, 230 nM and 121 nM.
The corresponding values for `CN[C@H](C)c1cccc(NC(=O)c2c(N)ncn(-c3c(C)cccc3Cl)c2=O)c1` (atropisomer, axis not shown) [Example 3, (R)-4-amino-1-((S)-2-chloro-6-methylphenyl)-N-(3-(1-(methylamino)ethyl)phenyl)-6-oxo-1,6-dihydropyrimidine-5-carboxamide] are 6.6 nM, 5 nM, 344 nM and 395 nM.
The corresponding values for `CNC(C)c1cncc(NC(=O)c2c(N)ncn(-c3c(Cl)cc(OC)cc3Cl)c2=O)c1` (single isomer, unassigned) [Example 19, (R)-4-amino-1-(2,6-dichloro-4-methoxyphenyl)-N-(5-(1-(methylamino)ethyl)pyridin-3-yl)-6-oxo-1,6-dihydropyrimidine-5-carboxamide or (S)-4-amino-1-(2,6-dichloro-4-methoxyphenyl)-N-(5-(1-(methylamino)ethyl)pyridin-3-yl)-6-oxo-1,6-dihydropyrimidine-5-carboxamide] are 3.2 nM, 3.5 nM, 232 nM and 180 nM.
For the compound `Nc1ncn(-c2c(Cl)cc(C(F)F)cc2Cl)c(=O)c1C(=O)Nc1cncc([C@@H]2CCCN2)c1` [Example 55, (S)-4-amino-1-(2,6-dichloro-4-(difluoromethyl)phenyl)-6-oxo-N-(5-(pyrrolidin-2-yl)pyridin-3-yl)-1,6-dihydropyrimidine-5-carboxamide], the IC50 at human GSK3α is 9.1 nM; against GSK3A it was 6.5 nM; on GSK3B [1], 430 nM; against GSK3B [2], 483 nM.
